Common to all, as to assay type: biochemical
One assay addresses PKC α (Homo sapiens, UniProt P17252). The experiment in a line: Protein Kinase C Histone-Based Assay, α isoform. The note with it: histone III substrate, 30 μM ATP, 10 min at 30° C.; read-out: PKC Activity (IC50 μM, Histone Based Assay) Alpha. The method, then:
(§1) Compounds were evaluated for PKC selectivity using histone III as the substrate. […] The reaction was incubated for 10 min at 30° C. Reactions were terminated by TCA precipitation and spotting on Whatman P81 filters. Filters were washed in 75 mM phosphoric acid and the radioactivity quantified by liquid scintillation counting.

A further assay deals with PKC β-II (Homo sapiens, UniProt P05771). Briefly: Protein Kinase C Histone-Based Assay, β-II isoform. The note with it: histone III substrate, 30 μM ATP, 10 min at 30° C.; read-out: PKC Activity (IC50 μM, Histone Based Assay) Beta II. As to the method: as §1
The next assay addresses PKC γ (Homo sapiens, UniProt P05129). Briefly: Protein Kinase C Histone-Based Assay, γ isoform. To be noted: histone III substrate, 30 μM ATP, 10 min at 30° C.; read-out: PKC Activity (IC50 μM, Histone Based Assay) Gamma. The method, then: as §1

IC50 data for 24 compounds are collected here from patent US7329657B2, “Indazolyl-substituted pyrroline compounds as kinase inhibitors” (Ortho-McNeil Pharmaceutical, Inc., priority 2000, dated 2008).

Sequence of PKC β-II (P05771 1-673 isoform P05771-2): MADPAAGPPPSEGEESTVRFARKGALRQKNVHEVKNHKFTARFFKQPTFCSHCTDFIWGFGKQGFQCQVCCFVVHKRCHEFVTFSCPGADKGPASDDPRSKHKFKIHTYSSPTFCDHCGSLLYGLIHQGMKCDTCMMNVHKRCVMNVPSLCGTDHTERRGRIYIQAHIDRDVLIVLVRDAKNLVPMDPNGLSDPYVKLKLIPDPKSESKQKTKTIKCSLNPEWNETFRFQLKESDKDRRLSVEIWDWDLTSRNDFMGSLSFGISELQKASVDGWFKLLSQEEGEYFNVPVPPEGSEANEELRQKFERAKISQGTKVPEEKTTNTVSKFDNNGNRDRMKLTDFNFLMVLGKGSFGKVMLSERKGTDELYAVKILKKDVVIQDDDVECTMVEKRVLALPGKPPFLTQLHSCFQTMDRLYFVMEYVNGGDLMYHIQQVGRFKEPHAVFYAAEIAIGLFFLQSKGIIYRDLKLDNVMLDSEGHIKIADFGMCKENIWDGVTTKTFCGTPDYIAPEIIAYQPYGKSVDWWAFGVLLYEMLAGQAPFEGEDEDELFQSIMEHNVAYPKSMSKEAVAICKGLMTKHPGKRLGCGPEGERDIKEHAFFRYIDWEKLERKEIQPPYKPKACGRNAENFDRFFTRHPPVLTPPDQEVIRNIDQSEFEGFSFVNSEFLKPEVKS

One may read the IC50 as the point on the concentration scale where inhibition reaches its midpoint. On to `CN(C)CCCn1nc(C2=C(c3cn(-c4cccs4)c4ccccc34)C(=O)NC2=O)c2ccccc21` [Compound 9, 3-[1-[3-(dimethylamino)propyl]-1H-indazol-3-yl]-4-[1-(2-thienyl)-1H-indol-3-yl]-1H-pyrrole-2,5-dione], for which the IC50 on PKC α stood at 0.141 µM; on PKC β-II, 0.008 µM; at PKC γ, 0.262 µM.

Regarding `CN(C)CCCn1nc(C2=C(c3cn(-c4cccnc4)c4ccccc34)C(=O)NC2=O)c2ccccc21` [Compound 12, 3-[1-[3-(dimethylamino)propyl]-1H-indazol-3-yl]-4-[1-(3-pyridinyl)-1H-indol-3-yl]-H-pyrrole-2,5-dione], the IC50 at PKC α was 0.124 µM; at PKC β-II, 0.007 µM; at PKC γ it was 0.213 µM.

For the compound `CN(C)CCCn1nc(C2=C(c3cn(-c4cccnc4)c4ccc(Cl)cc34)C(=O)NC2=O)c2ccccc21` [Compound 13, 3-[5-chloro-1-(3-pyridinyl)-1H-indol-3-yl]-4-[1-[3-(dimethylamino)propyl]-1H-indazol-3-yl]-1H-pyrrole-2,5-dione], the values for the IC50 at PKC α, on PKC β-II and on PKC γ were 0.011 µM, 0.004 µM and 0.045 µM, respectively.

As to `CN(C)CCCn1nc(C2=C(c3cn(-c4ccc5ccccc5c4)c4ccccc34)C(=O)NC2=O)c2ccccc21` [Compound 14, 3-[1-[3-(dimethylamino)propyl]-1H-indazol-3-yl]-4-[1-(2-naphthalenyl)-1H-indol-3-yl]-1H-pyrrole-2,5-dione], the IC50 on PKC α was determined as 0.057 µM; on PKC β-II it was 0.005 µM; at PKC γ, 0.115 µM.

For the compound `CN(C)CCCn1nc(C2=C(c3cn(-c4cccc5ccccc45)c4ccccc34)C(=O)NC2=O)c2ccccc21` [Compound 15, 3-[1-[3-(dimethylamino)propyl]-1H-indazol-3-yl]-4-[1-(1-naphthalenyl)-1H-indol-3-yl]-1H-pyrrole-2,5-dione], the values for the IC50 on PKC α, at PKC β-II and on PKC γ were 1.23 µM, 0.029 µM and 3.35 µM, respectively.

Turning to `CN(C)CCCn1nc(C2=C(c3cn(-c4cncc5ccccc45)c4ccccc34)C(=O)NC2=O)c2ccccc21` [Compound 16, 3-[1-[3-(dimethylamino)propyl]-1H-indazol-3-yl]-4-[1-(4-isoquinolinyl)-1H-indol-3-yl]-1H-pyrrole-2,5-dione], the IC50 was found to be 0.29 µM on PKC α, 0.015 µM on PKC β-II and 0.253 µM at PKC γ.

In the case of `CN(C)CCCn1nc(C2=C(c3cn(-c4cnc5ccccc5c4)c4ccccc34)C(=O)NC2=O)c2ccccc21` [Compound 19, 3-[1-[3-(dimethylamino)propyl]-1H-indazol-3-yl]-4-[1-(3-quinolinyl)-1H-indol-3-yl]-1H-pyrrole-2,5-dione], the IC50 was determined as 0.011 µM at PKC α, 0.004 µM at PKC β-II and 0.047 µM at PKC γ.

`O=C1NC(=O)C(c2nn(CCCN3CCOCC3)c3ccccc23)=C1c1cn(-c2cnc3ccccc3c2)c2ccccc12` [Compound 22, 3-[1-[3-(4-morpholinyl)propyl]-1H-indazol-3-yl]-4-[1-(3-quinolinyl)-1H-indol-3-yl]-1H-pyrrole-2,5-dione]: the IC50 came to 0.043 µM on PKC α, 0.006 µM on PKC β-II and 0.09 µM on PKC γ.

Take `O=CCCn1nc(C2=C(c3cn(-c4cnc5ccccc5c4)c4ccccc34)C(=O)NC2=O)c2ccccc21` [Compound 23, 3-[2,5-dihydro-2,5-dioxo-4-[1-(3-quinolinyl)-1H-indol-3-yl]-1H-pyrrol-3-yl]-1H-indazole-1-propionaldehyde]: the IC50 is 0.546 µM on PKC α, 0.054 µM at PKC β-II and 0.188 µM at PKC γ.

`O=C1NC(=O)C(c2nn(CCC3OCCO3)c3ccccc23)=C1c1cn(-c2cnc3ccccc3c2)c2ccccc12` [Compound 24, 3-[1-[2-(1,3-dioxolan-2-yl)ethyl]-1H-indazol-3-yl]-4-[1-(3-quinolinyl)-1H-indol-3-yl]-1H-pyrrole-2,5-dione]: the IC50 at PKC α came to 0.2 µM; at PKC β-II it was 0.029 µM; on PKC γ, 1.29 µM.

As to `CN(C)CCCn1nc(C2=C(c3cn(-c4ccccn4)c4ccccc34)C(=O)NC2=O)c2ccccc21` [Compound 31, 3-[1-[3-(dimethylamino)propyl]-1H-indazol-3-yl]-4-[1-(2-pyridinyl)-1H-indol-3-yl]-1H-pyrrole-2,5-dione], the IC50 was 0.106 µM at PKC α, 0.015 µM on PKC β-II and 0.091 µM on PKC γ.

As for `CN(C)CCCn1nc(C2=C(c3cn(-c4cncnc4)c4ccccc34)C(=O)NC2=O)c2ccccc21` [Compound 34, 3-[1-[3-(dimethylamino)propyl]-1H-indazol-3-yl]-4-[1-(5-pyrimidinyl)-1H-indol-3-yl]-1H-pyrrole-2,5-dione], the IC50 on PKC α worked out at 0.205 µM; on PKC β-II it was 0.009 µM; on PKC γ it was 0.665 µM.

As for `CN(C)CCCn1nc(C2=C(c3cn(-c4ccccc4)c4ccccc34)C(=O)NC2=O)c2ccccc21` [Compound 45, 3-[1-[3-(dimethylamino)propyl]-1H-indazol-3-yl]-4-(1-phenyl-1H-indol-3-yl)-1H-pyrrole-2,5-dione], the IC50 at PKC α was 0.071 µM; at PKC β-II it was 0.01 µM; on PKC γ, 0.168 µM.

With `CN(C)CCCn1nc(C2=C(c3cn(-c4csc5ccccc45)c4ccccc34)C(=O)NC2=O)c2ccccc21` [Compound 60, 3-(1-benzo[b]thien-3-yl-1H-indol-3-yl)-4-[1-[3-(dimethylamino)propyl]-1H-indazol-3-yl]-1H-pyrrole-2,5-dione], the IC50 at PKC α was determined as 0.611 µM; on PKC β-II, 0.037 µM; at PKC γ, 0.713 µM.

Regarding `CN(C)CCCn1nc(C2=C(c3cn(-c4ccc5cc(O)ccc5c4)c4ccccc34)C(=O)NC2=O)c2ccccc21` [Compound 64, 3-[1-[3-(dimethylamino)propyl]-1H-indazol-3-yl]-4-[1-(6-hydroxy-2-naphthalenyl)-1H-indol-3-yl]-1H-pyrrole-2,5-dione], the IC50 on PKC α worked out at 0.101 µM; on PKC β-II, 0.013 µM; on PKC γ, 0.215 µM.

Consider `CN(C)CCCn1nc(C2=C(c3cn(Cc4ccc5ccccc5n4)c4ccccc34)C(=O)NC2=O)c2ccccc21` [Compound 67, 3-[1-[3-(dimethylamino)propyl]-1H-indazol-3-yl]-4-[1-(2-quinolinylmethyl)-1H-indol-3-yl]-1H-pyrrole-2,5-dione], for which the concentration for half-maximal inhibition (IC50) at PKC α was found to be 1.48 µM; on PKC β-II, 0.016 µM; on PKC γ, 0.65 µM.

As to `O=C1NC(=O)C(c2nn(CCCN3CCOCC3)c3ccccc23)=C1c1cn(-c2ccc3ccccc3c2)c2ccccc12` [Compound 70, 3-[1-[3-(4-morpholinyl)propyl]-1H-indazol-3-yl]-4-[1-(2-naphthalenyl)-1H-indol-3-yl]-1H-pyrrole-2,5-dione], the figures for the IC50 on PKC α, on PKC β-II and on PKC γ were 0.259 µM, 0.018 µM and 0.342 µM, respectively.

In the case of `O=C1NC(=O)C(c2nn(CCCO)c3ccccc23)=C1c1cn(-c2ccc3ccccc3c2)c2ccccc12` [Compound 84, 3-[1-(3-hydroxypropyl)-1H-indazol-3-yl]-4-[1-(2-naphthalenyl)-1H-indol-3-yl]-1H-pyrrole-2,5-dione], the IC50 was determined as 0.358 µM at PKC α, 0.057 µM on PKC β-II and 0.206 µM on PKC γ.

On to `O=C1NC(=O)C(c2nn(CCCN3CCCC3)c3ccccc23)=C1c1cn(-c2ccc3ccccc3c2)c2ccccc12` [Compound 85, 3-[1-(2-naphthalenyl)-1H-indol-3-yl]-4-[1-[3-(1-pyrrolidinyl)propyl]-1H-indazol-3-yl]-1H-pyrrole-2,5-dione], for which the values for the IC50 on PKC α, on PKC β-II and at PKC γ were 0.477 µM, 0.044 µM and 0.511 µM, respectively.

As for `CN(CCO)CCCn1nc(C2=C(c3cn(-c4ccc5ccccc5c4)c4ccccc34)C(=O)NC2=O)c2ccccc21` [Compound 88, 3-[1-[3-[(2-hydroxyethyl)methylamino]propyl]-1H-indazol-3-yl]-4-[1-(2-naphthalenyl)-1H-indol-3-yl]-1H-pyrrole-2,5-dione], the results for the IC50 on PKC α, on PKC β-II and on PKC γ were 0.422 µM, 0.038 µM and 0.232 µM, respectively.

As for `CN(C)CCn1nc(C2=C(c3cn(-c4ccc5ccccc5c4)c4ccccc34)C(=O)NC2=O)c2ccccc21` [Compound 101, 3-[1-[2-(dimethylamino)ethyl]-1H-indazol-3-yl]-4-[1-(2-naphthalenyl)-1H-indol-3-yl]-1H-pyrrole-2,5-dione], the IC50 on PKC α turned out to be 0.08 µM; at PKC β-II, 0.019 µM; on PKC γ, 0.134 µM.

Take `CN(C)CCn1nc(C2=C(c3cn(-c4csc5ccccc45)c4ccccc34)C(=O)NC2=O)c2ccccc21` [Compound 103, 3-(1-benzo[b]thien-3-yl-1H-indol-3-yl)-4-[1-[2-(dimethylamino)ethyl]-1H-indazol-3-yl]-1H-pyrrole-2,5-dione]: the figures for the IC50 on PKC α, on PKC β-II and at PKC γ were 0.189 µM, 0.02 µM and 0.161 µM, respectively.

Turning to `CN(C)CCn1nc2ccccc2c1C1=C(c2cn(-c3csc4ccccc34)c3ccccc23)C(=O)NC1=O` [Compound 123, 3-(1-benzo[b]thien-3-yl-1H-indol-3-yl)-4-[2-[2-(dimethylamino)ethyl]-2H-indazol-3-yl]-1H-pyrrole-2,5-dione], on PKC β-II, the IC50 came to 0.026 µM.

For the compound `CN(C)CCCn1nc(C2=C(c3cn(-c4cccnc4)c4ccccc34)C(=O)NC2)c2ccccc21` [Compound 125, 4-[1-[3-(dimethylamino)propyl]-1H-indazol-3-yl]-1,5-dihydro-3-[1-(3-pyridinyl)-1H-indol-3-yl]-2H-pyrrol-2-one], the figures for the IC50 on PKC α and on PKC β-II were 0.339 µM and 0.005 µM, respectively.
